Experimental data: patent US12492356B2, “Oxa-sandalwood-type fragrance compounds” (SYMRISE AG, priority 2020, dated 2025)

Test system: panel of at least four experts
Test: Odor detection threshold (ODT), olfactometer TO8, DIN standard EN 13725
Details: for ODT / ODT in air: olfactometer TO8, panel of at least four experts, DIN EN 13725
Excerpt: The odor detection threshold (in the following abbreviated as “ODT”) is defined as the lowest concentration of a certain odorous compound (gaseous, sensorially active substance) which is perceivable and thus which can be distinguished with certainty from a blank reference under standard conditions. Generally, lower ODT values are preferred as a lower amount of the fragrance compound is required in order to a achieve strong odor impressions and thus lower amounts can be used for perfuming. However, as the threshold depends on various factors such as concentration, solubility, partition coefficient between air and the olfactory active substance, vapor pressure, polarity, molecular mass etc., predictions referring to the ODT of a substance are difficult to make. Table 2 indicates the ODT values of preferred embodiment in comparison to commercially available Brahmanol® (Symrise AG) and Sandranol® (Symrise AG). The ODT was measured using an olfactometer TO8 and a panel of at least four experts according to DIN standard EN 13725. According to the DIN standard EN 13725, the odor threshold value is defined as the concentration of an odorous substance at which, under defined test conditions, the probability of perceiving the sample is 0.5, i.e. 50% of the test persons indicate an odor perception. Thereby, the quantitative ODT value is given as the ratio of volume fractions of an odor-free comparison matrix, such as air, to the examined matrix at which the odor could just be perceived, i.e. a dilution factor.

COCC1=CCC(C/C=C(\C)CO)C1(C)C (centres unmarked) [Compound 1, 4-[3-(Methoxymethyl)-2,2-dimethyl-cyclopent-3-en-1-yl]-2-methyl-but-2-en-1-ol]
ODT: 0.0089 ppm (v/v)
ODT in air: 7.1 ng/L

CC1=CCC(CCC(C)CO)C1(C)C (centres unmarked) [Brahmanol ®, 2-methyl-4-(2′,2′,3′-trimethyl-3′-cyclopenten-1′-yl)-butan-1-ol, reference compound]
ODT: 0.0173 ppm (v/v)
ODT in air: 6.9 ng/L

CC/C(=C\CC1CC=C(C)C1(C)C)CO (centres unmarked) [Sandranol ®, 2-ethyl-4-(2′,2′,3′-trimethyl-3′-cyclopenten-1′-yl)-2-buten-1-ol, reference compound]
ODT: 0.000205 ppm (v/v)
ODT in air: 7.6 ng/L

C=C(CC(C)CO)C1CC=C(COC)C1(C)C (centres unmarked) [Compound 4, 4-[3-(Methoxymethyl)-2,2-dimethyl-cyclopent-3-en-1-yl]-2-methyl-pent-4-en-1-ol]
ODT: 0.0025 ppm (v/v)
ODT in air: 7.6 ng/L

CC/C(=C\CC1CC=C(COC)C1(C)C)CO (centres unmarked) [Compound 3, 2-Ethyl-4-[3-(methoxymethyl)-2,2-dimethyl-cyclopent-3-en-1-yl]but-2-en-1-ol]
threshold value reduced by the factor (in comparison to Brahmanol) (compared with Brahmanol): about 10
ODT: 0.0019 ppm (v/v)
ODT in air: 7.7 ng/L

COCC1=CCC(CCC(C)CO)C1(C)C (centres unmarked) [Compound 2, 4-[3-(Methoxymethyl)-2,2-dimethyl-cyclopent-3-en-1-yl]-2-methyl-butan-1-ol]
ODT value lower by a factor (comparator not named in the sentence (commercial analogue)): 3
ODT: 0.00285 ppm (v/v)
ODT in air: 7.6 ng/L
